Reference: patent US6087509A, “1-Imidazolidinyl-phenyls” (Hoechst Marion Roussel, priority 1995, dated 2000)

Key:
[1] = test system: costovertebral gland of the hamster; assay: Reducing effect on the costo-vertebral gland of the hamster (topical antiandrogen activity); type: in vivo; details: topical on right-hand C.V.G., 3 weeks (14 administrations), male hamsters, reduction in surface area
Protocol: 2) Determination of the Reducing Effect on the Costo-vertebral Gland of the Hamster
The local activity (topical) of an antiandrogen is determined by the reduction which it brings about in the surface area of the costovertebral gland of the hamster (hereafter C.V.G.), an androgen-dependent organ situated on the flanks of the animal.
The animals are male hamsters weighing about 140 g, 14 weeks old and originating from the Charles River breed (USA), they are subjected to a long photoperiod (16 hours of light, 8 hours of darkness). The animals are treated every day, except for the weekend, for 3 weeks (14 administrations). The product to be tested is applied, by topical route, on the right-hand C.V.G., the left-hand one serving as the control. The surface of the gland has been shaved beforehand. The animals are sacrificed by bleeding the carotid artery 24 hours after the last treatment. The C.V.G.'s are removed, measured and weighed. The local activity of a product is determined by the % of reduction in the surface area of the C.V.G. which it induces in comparison with the 1st day of the experiment and compared to the animals treated with solvent only.

[2] = test system: prostate in an intact male rat; assay: Reducing effect of the weight of the prostate in an intact male rat (systemic antiandrogen activity); type: in vivo; details: day 0 to 4 and day 7 to 10, intact male Sprague Dawley rats, compared to solvent only
Protocol: 3) Determination of the Reducing Effect of the Weight of the Prostate in an Intact Male Rat
The systemic activity of an antiandrogen is determined by the reduction in the weight of the prostate which it brings about in an intact animal.
The animals used are male rats of the Sprague Dawley strain weighing about 200 g, 7 weeks old, originating from the Iffa Credo breed (France). The experiment is carried out over two weeks, except for the weekend.
The product can be administered by oral, sub-cutaneous or percutaneous route.
The solvents used are then: by oral route: 0.5% aqueous solution of methylcellulose under a volume of 5 ml/kg, by sub-cutaneous route: wheatgerm oil in 10% ethanol under a volume of 0.2 ml/kg, and by percutaneous route: ethanol under a volume of 50 ul on previously-shaved skin.
The treatment is carried out from day 0 to day 4 then (after the weekend) from day 7 to day 10. The animals are sacrificed the day after the last treatment by bleeding the carotid artery, the prostates are removed and fixed in demineralized water containing 10% formol for 72 hours. They are then dissected and weighed.

[3] = target: T1, androgen receptor (Rattus norvegicus, UniProt P15207); assay: Affinity for the androgen receptor (relative bond affinity, tritiated testosterone displacement in rat prostate cytosol); type: binding
T1 construct: from tissue; host or cells: prostate cytosol of castrated male Sprague Dawley rats
T1 sequence (P15207 1-902): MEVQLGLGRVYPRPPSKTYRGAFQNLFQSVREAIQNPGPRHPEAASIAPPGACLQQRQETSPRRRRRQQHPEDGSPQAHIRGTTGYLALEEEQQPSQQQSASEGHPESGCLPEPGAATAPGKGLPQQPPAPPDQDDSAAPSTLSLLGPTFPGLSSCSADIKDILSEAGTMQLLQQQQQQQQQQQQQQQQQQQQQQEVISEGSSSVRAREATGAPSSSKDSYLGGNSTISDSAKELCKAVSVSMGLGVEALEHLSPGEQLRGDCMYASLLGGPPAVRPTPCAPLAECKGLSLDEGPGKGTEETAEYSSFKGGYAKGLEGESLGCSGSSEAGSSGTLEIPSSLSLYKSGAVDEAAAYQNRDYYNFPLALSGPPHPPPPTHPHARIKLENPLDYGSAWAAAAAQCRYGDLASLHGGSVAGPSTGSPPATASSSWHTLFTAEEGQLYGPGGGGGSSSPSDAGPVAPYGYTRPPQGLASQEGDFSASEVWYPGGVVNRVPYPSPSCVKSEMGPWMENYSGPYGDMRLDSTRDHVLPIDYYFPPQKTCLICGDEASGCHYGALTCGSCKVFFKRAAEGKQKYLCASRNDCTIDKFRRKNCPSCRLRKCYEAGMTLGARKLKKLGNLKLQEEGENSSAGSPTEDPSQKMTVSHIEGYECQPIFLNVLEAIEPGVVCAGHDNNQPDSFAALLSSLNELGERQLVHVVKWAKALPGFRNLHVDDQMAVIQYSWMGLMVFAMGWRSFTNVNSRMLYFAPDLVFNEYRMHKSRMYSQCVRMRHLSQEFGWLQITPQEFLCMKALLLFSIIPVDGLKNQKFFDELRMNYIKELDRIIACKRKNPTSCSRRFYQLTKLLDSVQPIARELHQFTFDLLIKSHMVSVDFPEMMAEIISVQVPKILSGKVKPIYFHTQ
Protocol: The straight line of the equation I50 =(B/Tmax+B/Tmin)/2 is determined.

SMILES	% CVG reduction with 3 μg/jour [1] [%]	% reduction in the prostate weight with 3 mg/kg P.O. [2] [%]	RBA: Incubation 24 hours [3]
CCN1C(=O)N(c2ccc(C#N)c(C(F)(F)F)c2)C(=O)C1(CF)CF [Example 3, 4-(2,5-dioxo-4,4-bis(fluoromethyl)-3-ethyl-1-imidazolidinyl)-2-(trifluoromethyl)-benzonitrile]	-33	-20	43
N#Cc1ccc(N2C(=O)N(CCF)C(CF)(CF)C2=O)cc1C(F)(F)F [Example 1, 4-(4,4-bis(fluoromethyl)-2,5-dioxo-3-(2-fluoroethyl)-1-imidazolidinyl)-2-(trifluoromethyl)-benzonitrile]	-32	-27	42
N#Cc1ccc(N2C(=O)N(CCCCO)C3(CCCCC3)C2=O)cc1C(F)(F)F [Example 9, 4-[2,4-dioxo-1-(4-hydroxybutyl)-1,3-diazaspiro-[4.5]decan-3-yl]-2-(trifluoromethyl)-benzonitrile]	-25	–	–
CC1(C)C(=O)N(c2ccc(C#N)c(C(F)(F)F)c2)C(=O)N1CC#CCO [Example 8, 4-(3-(4-hydroxy-2-butyn-1-yl)-4,4-dimethyl-2,5-dione-1-imidazolidinyl)-2-(trifluoromethyl)-benzonitrile]	–	-35	–
